Measurements from paper PMC6858440, “Computational redesign of the Escherichia coli ribose-binding protein ligand binding pocket for 1,3-cyclohexanediol and cyclohexanol” (Scientific Reports, 2019).

Target: RbsB ribose-binding protein (Escherichia coli, UniProt P02925)
Assay: ITC with purified protein; also ~[…] °C Tm shift with […] ribose

Sequence of RbsB ribose-binding protein (P02925 26-296): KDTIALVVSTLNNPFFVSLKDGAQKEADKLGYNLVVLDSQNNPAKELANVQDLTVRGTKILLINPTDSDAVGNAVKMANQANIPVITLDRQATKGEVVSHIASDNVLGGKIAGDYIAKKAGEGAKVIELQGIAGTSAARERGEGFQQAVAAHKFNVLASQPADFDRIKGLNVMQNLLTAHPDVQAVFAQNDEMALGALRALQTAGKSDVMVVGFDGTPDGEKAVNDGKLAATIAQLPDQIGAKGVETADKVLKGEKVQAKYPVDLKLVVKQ

Compound `O=C[C@H](O)[C@H](O)[C@H](O)CO` [ribose] has a Kd of 530 nM.
